Experimental data from PubChem BioAssay (NCI).
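Where inhibition never reached the appropriate level, the endpoint shown equals the highest concentration tested. Otherwise, values were interpolated linearly from a five-concentration, 48-hour dose response in 96-well plates. Abbreviation: GI50, concentration required for 50% inhibition of growth. The concentration for full growth arrest is given as TGI.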

What was measured:
Assay in all cases: NCI-60 cell line screen, 48 h
HCT-15 colon = test system: HCT-15 colon
CCRF-CEM leukemia = test system: CCRF-CEM leukemia
SK-MEL-28 melanoma = test system: SK-MEL-28 melanoma
EKVX NSCLC = test system: EKVX NSCLC
HCC-2998 colon = test system: HCC-2998 colon
MDA-MB-231 breast = test system: MDA-MB-231 breast
ACHN renal = test system: ACHN renal
UACC-62 melanoma = test system: UACC-62 melanoma
KM12 colon = test system: KM12 colon
SW-620 colon = test system: SW-620 colon
SF-539 CNS = test system: SF-539 CNS
HOP-92 NSCLC = test system: HOP-92 NSCLC
RXF 393 renal = test system: RXF 393 renal
HS 578T breast = test system: HS 578T breast
SNB-75 CNS = test system: SNB-75 CNS
UO-31 renal = test system: UO-31 renal
HCT-116 colon = test system: HCT-116 colon
U251 CNS = test system: U251 CNS
SR leukemia = test system: SR leukemia
SK-MEL-5 melanoma = test system: SK-MEL-5 melanoma
PC-3 prostate = test system: PC-3 prostate
NCI-H226 lung = test system: NCI-H226 lung
UACC-257 melanoma = test system: UACC-257 melanoma
SN12C renal = test system: SN12C renal
SK-OV-3 ovarian = test system: SK-OV-3 ovarian
OVCAR-5 ovarian = test system: OVCAR-5 ovarian
OVCAR-4 ovarian = test system: OVCAR-4 ovarian
NCI/ADR-RES ovarian = test system: NCI/ADR-RES ovarian
MALME-3M melanoma = test system: MALME-3M melanoma
NCI-H460 lung = test system: NCI-H460 lung
T-47D breast = test system: T-47D breast
A498 renal = test system: A498 renal
CAKI-1 renal = test system: CAKI-1 renal
COLO 205 colon = test system: COLO 205 colon
TK-10 renal = test system: TK-10 renal
IGROV1 ovarian = test system: IGROV1 ovarian
LOX IMVI melanoma = test system: LOX IMVI melanoma
MCF7 breast = test system: MCF7 breast
BT-549 breast = test system: BT-549 breast
HOP-62 NSCLC = test system: HOP-62 NSCLC
K-562 leukemia = test system: K-562 leukemia
HT29 colon = test system: HT29 colon
MOLT-4 leukemia = test system: MOLT-4 leukemia
SK-MEL-2 melanoma = test system: SK-MEL-2 melanoma
HL-60(TB) leukemia = test system: HL-60(TB) leukemia
NCI-H23 lung = test system: NCI-H23 lung
SF-295 CNS = test system: SF-295 CNS
RPMI-8226 leukemia = test system: RPMI-8226 leukemia
OVCAR-8 ovarian = test system: OVCAR-8 ovarian
M14 melanoma = test system: M14 melanoma
A549 NSCLC = test system: A549 NSCLC
DU-145 prostate = test system: DU-145 prostate
OVCAR-3 ovarian = test system: OVCAR-3 ovarian
SF-268 CNS = test system: SF-268 CNS
NCI-H522 lung = test system: NCI-H522 lung
MDA-MB-435 = test system: MDA-MB-435
SNB-19 CNS = test system: SNB-19 CNS
786-0 renal = test system: 786-0 renal

`O=C1C(Cl)=C(Nc2cccc(Cl)c2)C(=O)N1Cc1ccc(Cl)cc1Cl` showed a GI50 (HCT-15 colon) of 98.1 nM, a TGI (HCT-15 colon) of 8.84 µM and a GI50 (CCRF-CEM leukemia) of 4.38 µM. For the same molecule, the TGI (CCRF-CEM leukemia) was over 100 µM, the GI50 (SK-MEL-28 melanoma) was 1670 nM and the TGI (SK-MEL-28 melanoma) was 14.2 µM. The GI50 (EKVX NSCLC) was 9.31 µM, the TGI (EKVX NSCLC) was 34.4 µM and the GI50 (HCC-2998 colon) was 4.23 µM. For the same molecule, the TGI (HCC-2998 colon) was 18.8 µM, the GI50 (MDA-MB-231 breast) was 176 nM and the TGI (MDA-MB-231 breast) was 12.9 µM. It also gave a GI50 (ACHN renal) of 409 nM, a TGI (ACHN renal) of 7.71 µM and a GI50 (UACC-62 melanoma) of 446 nM. For the same molecule, the TGI (UACC-62 melanoma) was 4.83 µM, the GI50 (KM12 colon) was 7.89 µM and the TGI (KM12 colon) was 39.2 µM. It also gave a GI50 (SW-620 colon) of 115 nM, a TGI (SW-620 colon) of 18.9 µM and a GI50 (SF-539 CNS) of under 46.6 nM. The TGI (SF-539 CNS) was 2920 nM, the GI50 (HOP-92 NSCLC) was 2550 nM and the TGI (HOP-92 NSCLC) was 20.9 µM. The GI50 (RXF 393 renal) was 181 nM, the TGI (RXF 393 renal) was 3.83 µM and the GI50 (HS 578T breast) was 1230 nM. The TGI (HS 578T breast) was 22.9 µM, the GI50 (SNB-75 CNS) was 1290 nM and the TGI (SNB-75 CNS) was 9.92 µM. For the same molecule, the GI50 (UO-31 renal) was 431 nM, the TGI (UO-31 renal) was 3.45 µM and the GI50 (HCT-116 colon) was 685 nM. For the same molecule, the TGI (HCT-116 colon) was 7.57 µM, the TGI (U251 CNS) was 13.7 µM and the TGI (SR leukemia) was 8.9 µM. It also gave a GI50 (SK-MEL-5 melanoma) of 321 nM, a TGI (SK-MEL-5 melanoma) of 4.5 µM and a GI50 (PC-3 prostate) of 2940 nM. For the same molecule, the TGI (PC-3 prostate) was over 50.3 µM, the TGI (NCI-H226 lung) was 2260 nM and the GI50 (UACC-257 melanoma) was 5.94 µM. For the same molecule, the TGI (UACC-257 melanoma) was 24.8 µM, the GI50 (SN12C renal) was 252 nM and the TGI (SN12C renal) was 12.8 µM. For the same molecule, the GI50 (SK-OV-3 ovarian) was 3.57 µM, the TGI (SK-OV-3 ovarian) was 20.6 µM and the GI50 (OVCAR-5 ovarian) was 11.6 µM. It also gave a TGI (OVCAR-5 ovarian) of 37.1 µM, a GI50 (OVCAR-4 ovarian) of 508 nM and a TGI (OVCAR-4 ovarian) of 7.41 µM. For the same molecule, the GI50 (NCI/ADR-RES ovarian) was 904 nM, the TGI (NCI/ADR-RES ovarian) was 25 µM and the GI50 (MALME-3M melanoma) was 4.17 µM. For the same molecule, the TGI (MALME-3M melanoma) was 19 µM, the GI50 (NCI-H460 lung) was 2680 nM and the TGI (NCI-H460 lung) was 21 µM. For the same molecule, the GI50 (T-47D breast) was 1720 nM, the TGI (T-47D breast) was over 41.8 µM and the GI50 (A498 renal) was 771 nM. The TGI (A498 renal) was 7.12 µM, the GI50 (CAKI-1 renal) was 5.36 µM and the TGI (CAKI-1 renal) was 48.5 µM. It also gave a GI50 (COLO 205 colon) of 1000 nM, a TGI (COLO 205 colon) of 16 µM and a GI50 (TK-10 renal) of 11.5 µM. The TGI (TK-10 renal) was 31.7 µM, the GI50 (IGROV1 ovarian) was under 23 nM and the TGI (IGROV1 ovarian) was 9.15 µM. The GI50 (LOX IMVI melanoma) was under 31.6 nM, the TGI (LOX IMVI melanoma) was 11.5 µM and the GI50 (MCF7 breast) was 1240 nM. For the same molecule, the TGI (MCF7 breast) was 41.5 µM, the GI50 (BT-549 breast) was 66.3 nM and the TGI (BT-549 breast) was 7.48 µM. The GI50 (HOP-62 NSCLC) was 5.61 µM, the TGI (HOP-62 NSCLC) was 22.8 µM and the GI50 (K-562 leukemia) was 834 nM. For the same molecule, the TGI (K-562 leukemia) was over 87.5 µM, the GI50 (HT29 colon) was 971 nM and the TGI (HT29 colon) was 14.7 µM. The TGI (MOLT-4 leukemia) was over 100 µM, the GI50 (SK-MEL-2 melanoma) was 1600 nM and the GI50 (HL-60(TB) leukemia) was 7.66 µM. For the same molecule, the TGI (HL-60(TB) leukemia) was over 100 µM, the GI50 (NCI-H23 lung) was 2140 nM and the TGI (NCI-H23 lung) was 25.6 µM. For the same molecule, the GI50 (SF-295 CNS) was 4.22 µM, the TGI (SF-295 CNS) was 33.4 µM and the GI50 (RPMI-8226 leukemia) was 3.18 µM. For the same molecule, the TGI (RPMI-8226 leukemia) was 15.4 µM, the GI50 (OVCAR-8 ovarian) was 60.3 nM and the TGI (OVCAR-8 ovarian) was over 36.1 µM. It also gave a GI50 (M14 melanoma) of 4.87 µM, a TGI (M14 melanoma) of 21.9 µM and a GI50 (A549 NSCLC) of 3.85 µM. The TGI (A549 NSCLC) was 19.6 µM, the GI50 (DU-145 prostate) was 5.87 µM and the TGI (DU-145 prostate) was 18.2 µM. It also gave a GI50 (OVCAR-3 ovarian) of 11.1 µM, a TGI (OVCAR-3 ovarian) of 24.8 µM and a GI50 (SF-268 CNS) of 1370 nM. The TGI (SF-268 CNS) was 25 µM, the GI50 (NCI-H522 lung) was 265 nM and the TGI (NCI-H522 lung) was 5.86 µM. For the same molecule, the GI50 (MDA-MB-435) was 1240 nM, the TGI (MDA-MB-435) was 16 µM and the GI50 (SNB-19 CNS) was 842 nM. It also gave a TGI (SNB-19 CNS) of 18 µM and a TGI (786-0 renal) of 4.93 µM.
